Test results from patent US6407125B1, “Pharmacological agent and method of treatment” (Novactyl, Inc., priority 1995, dated 2002).

What was measured:
recombinant MPS-1 = recombinant MPS-1 (Homo sapiens, UniProt P42677); assay: Gel shift assay of zinc dependent binding of recombinant MPS-1 to DNA; 65Zn removal from MPS-1; assay type: biochemical
Description: MPS-1 is a ubiquitous tumor marker and cell growth stimulator and is described in detail in the inventor's U.S. Pat. No. Re.35,585 (U.S. Pat. No. 5,243,041). MPS-1 has one zinc finger domain of the type CCCC. […] This is detected by a change in the electrophoretic mobility of MPS-1 under non-denaturing conditions. These experiments indicate that picolinic acid and derivatives should remove zinc and denature various types of zinc finger or zinc ring proteins, whether known or heretofore undiscovered, including viral proteins such as nucleocapsid p7 proteins, as will be explained further. Furthermore, the inventor has determined that any chemical compound, whether known or heretofore undiscovered, that will remove the zinc (or other metal) and denature the proteins or that will form a ternary complex (protein-zinc-chelator) can be effective as a therapeutic agent or as an autologous immune response modulator, as will be discussed in greater detail below.

osteosarcoma = assay: Oral treatment of osteosarcoma in canine; assay type: in vivo, dog; details: 500 mg capsules twice daily, six days after initiating treatment
Protocol: The subject animal was a Bichon Frise dog that was diagnosed by a veterinarian with osteosarcoma. The osteosarcoma had invaded the dog's mandible and was encroaching on the lower portion of the orbit. The veterinarian began treatment with picolinic acid. The dog was administered 500 mg of picolinic acid, in capsules, twice daily. Six days after initiating treatment the veterinarian documented that the osteosarcoma had reduced approximately 40% in size. One week later the veterinarian observed that the tumor looked “necrotic”. The veterinarian incised the skin above the tumor and removed fluid from the center of the tumor.

[1] = Topical treatment of inflammation associated with acne; assay type: in vivo; details: 5% to 10% aqueous solution; more than 35 cases, adults and teenagers
Description: Furthermore, it is believed that the response of cells to stress, such as exposure to UV radiation, chemicals, bacteria, parasites or fungi is associated with the induction of heat shock proteins.

metastatic colon cancer = assay: Oral treatment of metastatic colon cancer, case; assay type: in vivo, human
Description: The inventor has determined that systemic administration of picolinic acid or derivatives is effective in controlling various cancers with reduced side effects by mechanisms heretofore unknown or unanticipated. […] The patient's condition improved. Based upon known mechanisms of action, the inventor anticipated that the patient may become anemic due to the concomitant chelation of iron. However, the inventor discovered a completely novel response. Over the course of several weeks, the patent's hematocrit increased. The inventor determined that the increase in hemoglobin along with the clinical improvement, is a result of synergistic mechanisms. First, the chelation of the iron suppressed tumor angiogenesis and induce killer T-cell formation. Furthermore, the chelated iron appears to be actively and usefully transported to bone marrow to support hematopoesis.
The subject is a person with metastatic colon cancer. The subject presented with an enlarged lymph node in the neck. The lymph node was putting pressure on nerves causing a drooping of the subject's right eyelid. […] Treatment was initiated with 500 mg of picolinic acid in capsule form, by mouth twice daily. […] An aspiration needle biopsy of the lymph node was attempted but had to be repeated due to the fact that the pathologist was withdrawing necrotic tissue from the lymph node. […] The protocol includes increasing the dosage up to 2000 mg per day, or more, if required.

[2] = in a 70 Kg subject; cited from earlier work
[3] = test system: Microbial and fungal growth; assay: Preservative effect on microbial and fungal growth in foods; details: used as preservative
Description: The chelating agents of the present invention can be used as preservatives in perishable items such as foods and pharmaceuticals and to prevent fungal growth on the surface of fresh fruits. Presently chemicals such as citrashine orthophenilphenol thiabendazole are used. […] Microbial and fungal growth is inhibited while the food components are unaffected. The preservative of the present invention has less likelihood of toxicity or untoward reactions if ingested that the present, complex chemical antifungals. The preferred concentration of picolinic acid or acceptable derivative for this use is approximately below 0.025% to be classified as a preservative. Of course, greater percentages, e.g. up to 99.9% also would be effective.

lymphoma = assay: Oral treatment of lymphoma and impaired immunity; assay type: in vivo, human; details: oral 2000 to 4000 mg per day
Protocol: The patient was a person with a history of lymphoma and impaired immunity. The patient had received standard therapy for lymphoma including the CHOP regimen. […] The patient contracted pneumonia three or four times per year and suffered from chronic otitis, chronic sinusitis and chronic Herpes Zoster infections.
The patient was treated with oral picolinic acid starting at 2000 mg per day and increased to 4000 mg per day divided equally in four doses. […] Their immunoglobulin levels rose to 3.3. Their chronic ear and sinus infections and pneumonia resolved concurrently. The Herpes Zoster disappeared.

cells = details: cited from earlier work

SMILES: O=C(O)c1ccccn1 [picolinic acid, 2-Pyridine carboxylic acid]
- removal of radioactive 65Zn from MPS-1 (recombinant MPS-1; CCCC zinc finger, change in electrophoretic mobility, non-denaturing conditions): remove radioactive 65Zn from MPS-1
- zinc dependent binding of recombinant MPS-1 to DNA (recombinant MPS-1; gel shift assays): inhibit the zinc dependent binding of recombinant MPS-1 to DNA
- reduction in size of osteosarcoma (osteosarcoma): approximately 40%
- treatment of inflammation associated with acne [1]: successfully treated
- estimated reduction in mass of cancerous lymph node (metastatic colon cancer; 500 mg capsule by mouth twice daily, within 72 hours, palpation): over 50%
- tolerability (metastatic colon cancer; 500 mg picolinic acid twice daily): tolerating treatment well
- hematocrit (metastatic colon cancer; oral picolinic acid, over several weeks): increased
- LD-50 [2]: 140 grams
- microbial and fungal growth [3]: inhibited
- actinic lesion outcome (10% in Aquaphor daily, approximately three weeks, two patients): completely cured
- effects on normal skin (in vivo): without any effects on normal skin
- chronic ear and sinus infections and pneumonia (lymphoma): resolved
- lymphoma response (lymphoma; approximately two weeks): reduction in size of lymph nodes
- immunoglobulin levels (lymphoma; before treatment 0.6 to 0.7): 3.3
- incorporation of iron into the cells (cells): inhibits incorporation of iron into the cells
- removal of radioiron from the cells (cells): effectively removes radioiron from the cells
